In ChEMBL document CHEMBL1143515, “Structure-activity relationships of 1'S-1'-acetoxychavicol acetate for inhibitory effect on NO production in lipopolysaccharide-activated mouse peritoneal macrophages” (Bioorg Med Chem Lett, 2005):

Experiments:
Mus musculus [1] = species on record: Mus musculus; experiment: Inhibitory concentration of compound on nitric oxide (NO) production in lipopolysaccharide activated mouse peritoneal macrophages; assay type: functional
Mus musculus [2] = species on record: Mus musculus; experiment: Percent inhibition of nitric oxide (NO) production in lipopolysaccharide activated mouse peritoneal macrophages at 100 uM of compound; assay type: functional
[3] = Concentration with cytotoxic effect on mouse peritoneal macrophages

Structure (SMILES)	IC50 (Mus musculus [1]; read-out: IC50)	Inhibition (Mus musculus [2])	IC50 (Mus musculus [1])	Cytotoxicity [3]
C=CCc1ccc(OC)c(OC)c1 [METHYLEUGENOL]	> 100 µM	1%		
C=C[C@H](OC(C)=O)c1ccccc1	> 100 µM	20%		
C=CCc1ccc(OC(C)=O)cc1	65 µM			
C=CCC(OC(C)=O)c1ccc(OC(C)=O)cc1 (configuration not stated)	9.2 µM			
COc1cc(/C=C/C(=O)O)cc(OC)c1O [SINAPINATE]	> 100 µM	27%		
C=C[C@@H](OC(C)=O)c1ccc(OC(C)=O)cc1	8.2 µM			
CCC(=O)Oc1ccc(C(CC)OC(=O)CC)cc1 (configuration not stated)	59 µM			
C=CCc1ccc(O)c(OC)c1 [EUGENOL]	> 100 µM	15%		
CC(=O)OC/C=C/c1ccc(O)cc1	72 µM			
O=C(O)/C=C/c1ccccc1 [CINNAMIC ACID]	> 100 µM	15%		
CCC(O)c1ccc(O)cc1 (configuration not stated)	> 100 µM	11%		
C=C[C@H](OC(C)=O)c1ccc(OC(C)=O)cc1 [1'-ACETOXYCHAVICOL ACETATE]	2.3 µM			
COc1ccc(/C=C/C(=O)O)cc1 [4-METHOXYCINNAMIC ACID]	> 100 µM	27%		
C=C[C@H](O)c1ccc(OC(C)=O)cc1	> 100 µM	46%		
C=CCc1ccc(O)c(O)c1 [HYDROXYCHAVICOL]	15 µM			
OC/C=C/c1ccc(O)cc1	> 100 µM	24%		
N=C(N)NCCSSCCNC(=N)N [GUANIDINOETHYLDISULFIDE]	7.4 µM			
CCC(OC(C)=O)c1ccccc1OC(C)=O (configuration not stated)	99 µM			
CC[C@H](OC(C)=O)c1ccccc1	> 100 µM	25%		
O=C(O)/C=C/c1ccccc1O [O-COUMARIC ACID]	> 100 µM	7%		
C=CC(O)c1ccccc1O (configuration not stated)	> 100 µM	0%		
C=CC(OC(C)=O)c1cccc(OC(C)=O)c1 (configuration not stated)	> 100 µM	20%		
O=C/C=C/c1ccc(O)cc1 [p-HYDROXYCINNAMALDEHYDE]	20 µM			

Structure (SMILES)	IC50 (Mus musculus [1]; read-out: IC50)	Inhibition (Mus musculus [2])	IC50 (Mus musculus [1])	Cytotoxicity [3]
C=CCC(O)c1ccc(O)cc1 (configuration not stated)	> 100 µM	13%		
C=CC(OC(C)=O)c1ccc(OC(C)=O)cc1 (configuration not stated)	4.9 µM			
CC[C@H](O)c1ccccc1	> 100 µM	-4%		
O=C(/C=C/c1ccc(O)c(O)c1)OCCc1ccccc1 [CAFFEIC ACID PHENETHYL ESTER]	15 µM			
C=CC(OC(C)=O)c1cccc(O)c1 (configuration not stated)	> 100 µM	25%		
O=C(O)/C=C/c1ccc(O)c(O)c1 [CAFFEIC ACID]	> 100 µM	15%		
C=CC(OC)c1ccc(OC)cc1 (configuration not stated)	> 100 µM	22%		
C=C[C@H](OC(C)=O)c1ccc(OC(C)=O)c(OC)c1	11 µM			
C=CCc1ccc(O)cc1 [CHAVICOL]	> 100 µM	43%		
C=CC(OC(C)=O)c1ccccc1OC(C)=O (configuration not stated)	3.2 µM			
C=C[C@H](O)c1ccccc1	> 100 µM	19%		
COc1ccc(/C=C/C(=O)O)cc1OC [O,O'-DIMETHYLCAFFEIC ACID]	> 100 µM	1%		
CC(=O)OC/C=C/c1ccc(OC(C)=O)cc1	19 µM			
CCC(OC(C)=O)c1ccc(OC(C)=O)cc1 (configuration not stated)	10 µM			
O=C(O)/C=C/c1cccc(O)c1	> 100 µM	3%		
CC(C)=O [ACETONE]			7.3 µg/mL	
C=CCc1ccc(O[C@@H]2O[C@H](CO)[C@@H](O)[C@H](O)[C@H]2O)cc1	> 100 µM	6%		
C=CC(O)c1cccc(O)c1 (configuration not stated)	> 100 µM	1%		
CCCC(OC(C)=O)c1ccc(OC(C)=O)cc1 (configuration not stated)	47 µM			
C=CC(OC(=O)CC)c1ccc(OC(=O)CC)cc1 (configuration not stated)	30 µM			
C=CC(O)c1ccc(O)cc1 (configuration not stated)	> 100 µM	-1%		
C=CC(O)c1ccc(OC)cc1 (configuration not stated)	> 30 µM	-3%		100 µM
